Data reported in patent publication US20160137639A1, “TRIAZOLE-ISOXAZOLE COMPOUND AND MEDICAL USE THEREOF” (JAPAN TOBACCO INC., priority 2012, published 2016).
Like-named read-outs stand apart in the source and are kept apart here.

How the values were obtained:
[1] = target: T1, human RORγ (Homo sapiens, UniProt P51449); assay: Luciferase reporter gene assay of inhibitory effect against RORγ transcriptional activity (GAL4-hRORγ plasmid in CHO cells); format: cell-based
T1 construct: human, NM_005060.3 and from Ser253 to Lys518; expressed in transfected cells; host or cells: CHO cells (transient co-transfection with pG5-Luc reporter)
T1 sequence (P51449 253-518): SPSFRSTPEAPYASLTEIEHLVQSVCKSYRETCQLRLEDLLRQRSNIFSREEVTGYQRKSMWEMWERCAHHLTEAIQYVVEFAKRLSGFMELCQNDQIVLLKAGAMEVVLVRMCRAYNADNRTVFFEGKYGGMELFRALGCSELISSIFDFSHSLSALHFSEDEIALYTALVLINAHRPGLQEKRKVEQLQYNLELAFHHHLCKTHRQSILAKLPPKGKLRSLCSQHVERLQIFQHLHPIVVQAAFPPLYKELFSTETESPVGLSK

[2] = target: T2, mouse RORγ (Mus musculus, UniProt P51450); assay: Luciferase reporter gene assay of inhibitory effect against RORγ transcriptional activity (GAL4-mRORγ plasmid in CHO cells); format: cell-based
T2 construct: mouse, NM_011281.2 and from Ile251 to Lys516; expressed in transfected cells; host or cells: CHO cells (transient co-transfection with pG5-Luc reporter)
T2 sequence (P51450 251-516): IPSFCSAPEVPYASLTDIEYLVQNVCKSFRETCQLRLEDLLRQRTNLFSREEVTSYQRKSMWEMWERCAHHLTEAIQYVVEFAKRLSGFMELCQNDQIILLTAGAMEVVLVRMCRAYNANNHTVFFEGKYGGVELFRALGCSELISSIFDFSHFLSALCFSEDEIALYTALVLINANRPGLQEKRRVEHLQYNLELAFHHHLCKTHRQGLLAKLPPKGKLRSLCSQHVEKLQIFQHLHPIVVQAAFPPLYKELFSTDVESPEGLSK
Summary of the method: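 Readout is intracellular luciferase after 2-day compound exposure (8 concentrations, 0.1% DMSO) in CHO cells expressing GAL4 fused to mouse RORγ LBD residues Ile251–Lys516 plus pG5-Luc reporter. EC50 fitted from %-of-control; points showing resazurin-detected cytotoxicity dropped.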

For `Cc1ccc(NC(=O)CC(CCN2C(=O)c3ccccc3C2=O)c2nnc(CCCC(C)C)n2C2CC2)c(C)c1` (racemic) [Example F-272], the EC50 ([1]; read-out: LUC EC50 (μM) hRORg) was less than 3 µM and the EC50 ([2]; read-out: LUC EC50 (μM) mRORg) was less than 3 µM.

`CCc1ccc(CNC(=O)CCc2nnc(CCC(C)C)n2C2CC2)cc1` [Example F-124] gave an EC50 ([1]; read-out: LUC EC50 (μM) hRORg) greater than 3 µM and an EC50 ([2]; read-out: LUC EC50 (μM) mRORg) greater than 3 µM.

Molecule `Cc1ccc(NC(=O)[C@H]2CN(S(=O)(=O)C(C)C)C[C@@H]2c2nnc([C@H]3C[C@@H](CC(C)(C)C)C3)n2C2CC2)c(C)c1` [Example F-552] has an EC50 ([1]; read-out: LUC EC50 hRORg) of less than 3 µM and an EC50 ([2]; read-out: LUC EC50 mRORg) of less than 3 µM.

Work on `Cc1ccc(NC(=O)[C@@H]2C[C@H](O)C[C@H]2c2nnc([C@H]3C[C@@H](CC(C)C)C3)n2C2CC2)c(C)c1` [Example F-471] yielded an EC50 ([1]; read-out: LUC EC50 (μM) hRORg) greater than 3 µM and an EC50 ([2]; read-out: LUC EC50 (μM) mRORg) greater than 3 µM.

`CC(=O)N1CC(c2noc([C@H]3C[C@@H](CC(C)(C)C)C3)c2C2CC2)[C@@H](C(=O)Nc2ccc(C)cc2Cl)C1` (stereo partly shown) [Example F-686] showed an EC50 ([1]; read-out: LUC EC50 hRORg) of less than 3 µM and an EC50 ([2]; read-out: LUC EC50 mRORg) of less than 3 µM.

`Cc1ccc(NC(=O)[C@H]2CN(C(=O)C(C)C)C[C@@H]2c2nnc([C@H]3C[C@@H](CC(C)(C)C)C3)n2C2CC2)c(C)c1` [Example F-553] showed an EC50 ([1]; read-out: LUC EC50 hRORg) of less than 3 µM and an EC50 ([2]; read-out: LUC EC50 mRORg) of less than 3 µM.

`CC(=O)N1C[C@H](C(=O)Nc2ccc(C)cc2C)[C@@H](c2nnc(C3CC4(CCC(F)(F)CC4)C3)n2C2CC2)C1` [Example F-620] was tested, and the EC50 ([1]; read-out: LUC EC50 hRORg) was less than 3 µM and the EC50 ([2]; read-out: LUC EC50 mRORg) was less than 3 µM.

Molecule `Cc1ccc(NC(=O)[C@H]2CN(S(=O)(=O)C(F)(F)F)C[C@@H]2c2nnc(CCCC(C)(C)C)n2C2CC2)c(C)c1` (racemic) [Example F-527] has an EC50 ([1]; read-out: LUC EC50 hRORg) of less than 3 µM and an EC50 ([2]; read-out: LUC EC50 mRORg) of less than 3 µM.

In the case of `Cc1ccc(C(N)=O)cc1NC(=O)CCc1nnc(CCC(C)C)n1C1CC1` [Example F-154], the EC50 ([1]; read-out: LUC EC50 (μM) hRORg) is reported as greater than 3 µM and the EC50 ([2]; read-out: LUC EC50 (μM) mRORg) is reported as greater than 3 µM.

`Cc1ccc(NC(=O)C[C@H](CCC(=O)O)c2noc(-c3cc(CC(C)(C)C)on3)c2C2CC2)c(Cl)c1` [Example E-06] gave an EC50 ([1]; read-out: LUC EC50 (μM) hRORg) of less than 3 µM and an EC50 ([2]; read-out: LUC EC50 (μM) mRORg) of less than 3 µM.

For `CCn1c(CCC(=O)NCc2ccccc2C)nnc1CCC1CCCCC1` [Example F-41], the EC50 ([1]; read-out: LUC EC50 (μM) hRORg) was less than 3 µM and the EC50 ([2]; read-out: LUC EC50 (μM) mRORg) was less than 3 µM.

`CC(C)(C[C@H]1C[C@@H](c2onc([C@@H](CCC(=O)O)CC(=O)Nc3ccc(CO)cc3Cl)c2C2CC2)C1)C(=O)O` [Example F-739] showed an EC50 ([1]; read-out: LUC EC50 hRORg) greater than 3 µM and an EC50 ([2]; read-out: LUC EC50 mRORg) greater than 3 µM.

For `Cc1ccc(NC(=O)[C@H]2CN(S(=O)(=O)CC(F)(F)F)C[C@@H]2c2nnc([C@H]3C[C@@H](CC(C)(C)C)C3)n2C2CC2)c(C)c1` [Example F-559], the EC50 ([1]; read-out: LUC EC50 hRORg) was less than 3 µM and the EC50 ([2]; read-out: LUC EC50 mRORg) was less than 3 µM.

In the case of `Cc1c(Cl)cccc1NC(=O)CCc1nnc(CCOC(C)(C)C(F)(F)F)n1C1CC1` [Example F-304], the EC50 ([1]; read-out: LUC EC50 (μM) hRORg) is reported as less than 3 µM and the EC50 ([2]; read-out: LUC EC50 (μM) mRORg) is reported as less than 3 µM.

`Cc1ccc(NC(=O)C(C)C(CCO)c2nnc([C@H]3C[C@@H](CC(C)C)C3)n2C2CC2)c(C)c1` (single isomer, unassigned) [Example F-490] was tested, and the EC50 ([1]; read-out: LUC EC50 (μM) hRORg) was greater than 3 µM and the EC50 ([2]; read-out: LUC EC50 (μM) mRORg) was greater than 3 µM.

Molecule `Cc1cc(C)cc(NC(=O)CCc2nnc(CCC(C)C)n2C2CC2)c1` [Example F-76] has an EC50 ([1]; read-out: LUC EC50 (μM) hRORg) greater than 3 µM and an EC50 ([2]; read-out: LUC EC50 (μM) mRORg) greater than 3 µM.

For `CCn1c(CCC(=O)Nc2cccc3c2CCCC3)nnc1C1Cc2ccccc2C1` [Example F-7], the EC50 ([1]; read-out: LUC EC50 (μM) hRORg) was greater than 3 µM and the EC50 ([2]; read-out: LUC EC50 (μM) mRORg) was less than 3 µM.

Work on `CC(C)CCc1nnc(CCC(=O)NC2CCc3ccccc32)n1C1CC1` (racemic) [Example F-83] yielded an EC50 ([1]; read-out: LUC EC50 (μM) hRORg) greater than 3 µM and an EC50 ([2]; read-out: LUC EC50 (μM) mRORg) greater than 3 µM.

With `Cc1ccc(NC(=O)CC(CO)c2nnc(CCCC(C)(C)C)n2C2CC2)c(C)c1` (racemic) [Example F-497] the EC50 ([1]; read-out: LUC EC50 hRORg) was less than 3 µM and the EC50 ([2]; read-out: LUC EC50 mRORg) was less than 3 µM.

`COc1cc(C)ccc1CNC(=O)CCc1noc(C(F)(F)c2cc(C(C)(C)C)no2)c1C1CC1` [Example F-741] showed an EC50 ([1]; read-out: LUC EC50 hRORg) of less than 3 µM and an EC50 ([2]; read-out: LUC EC50 mRORg) of less than 3 µM.

For `Cc1ccc(NC(=O)[C@H]2CN(C(=O)N(C)C)C[C@@H]2c2nnc(CCCC(C)(C)C)n2C2CC2)c(C)c1` (racemic) [Example F-447], the EC50 ([1]; read-out: LUC EC50 (μM) hRORg) was less than 3 µM and the EC50 ([2]; read-out: LUC EC50 (μM) mRORg) was less than 3 µM.

`CC1(Cc2cc(-c3onc([C@@H](CCC(=O)O)CC(=O)Nc4ccc(Cl)cc4F)c3C3CC3)no2)CC1` [Example E-64] gave an EC50 ([1]; read-out: LUC EC50 (μM) hRORg) of less than 3 µM and an EC50 ([2]; read-out: LUC EC50 (μM) mRORg) of less than 3 µM.

In the case of `Cc1ccc(NC(=O)[C@H]2CN(S(=O)(=O)C(F)(F)F)C[C@@H]2c2nnc([C@H]3C[C@@H](CC(C)(C)C)C3)n2C2CC2)c(C)c1` [Example F-542], the EC50 ([1]; read-out: LUC EC50 hRORg) is reported as less than 3 µM and the EC50 ([2]; read-out: LUC EC50 mRORg) is reported as less than 3 µM.

`Cc1c(Cl)cccc1NC(=O)[C@H]1CN(C(=O)CO)C[C@@H]1c1nnc(CCC(C)C)n1C1CC1` (racemic) [Example F-146] gave an EC50 ([1]; read-out: LUC EC50 (μM) hRORg) greater than 3 µM and an EC50 ([2]; read-out: LUC EC50 (μM) mRORg) of less than 3 µM.

`Cc1ccc(NC(=O)C[C@H](CCC(=O)O)c2noc(-c3csc(CC(C)C)n3)c2C2CC2)c(Cl)c1` [Example E-36] showed an EC50 ([1]; read-out: LUC EC50 (μM) hRORg) greater than 3 µM and an EC50 ([2]; read-out: LUC EC50 (μM) mRORg) of less than 3 µM.

`Cc1c(Cl)cccc1NC(=O)CC(CC(=O)O)c1nnc(CCCC(C)C)n1C1CC1` (racemic) [Example F-213] showed an EC50 ([1]; read-out: LUC EC50 (μM) hRORg) greater than 3 µM and an EC50 ([2]; read-out: LUC EC50 (μM) mRORg) greater than 3 µM.
